Structures can show the parent of a compound that is named as a salt.

The text below walks through data of publication PMC7125889 (Bioorganic & Medicinal Chemistry, 2008).

One test relates to NMDA receptors. Description: NMDA receptor antagonist functional assay, intracellular calcium. In kind it is cell-based. To be noted: for times more potent than amantadine as NMDA receptor antagonist: vs amantadine. For orientation: Calcium flux is commonly read through the fluorescence of an indicator in the cells.
In test [1] the test system is bloodstream form T. brucei (strain 427). Description: Trypanocidal activity against cultured bloodstream form T. brucei. To be noted: concentrations up to 5 μg mL−1.

For the compound `NCC12CC3CC(CC1C3)C2` [Compound 14, [(Tricyclo[3.3.1.0^3,7]non-3-yl)methyl]amine hydrochloride], in the test on NMDA receptors (cerebellar granule neurons, highest concentration tested), the “NMDA receptor antagonist activity (in words)” value was “no NMDA receptor antagonist activity”.

In the case of `CC12CC3CC1(C)CC3(N)C2` [Compound 21, 3,7-Dimethyl(tricyclo[3.3.0.0^3,7]oct-1-yl)amine·HCl], the “activity against cultured bloodstream form T. brucei” value in test [1] is “no significant activity”. For the same compound, the “times more potent as NMDA receptor antagonist than 3-noradamantylamine, 7” value in the test with NMDA receptors (vs compound 7) was found to be 4 times.

As to `CC12CC3CC1(C)CC3(NCc1ccccc1)C2` [Compound 22a, N-Benzyl-3,7-dimethyl(tricyclo[3.3.0.0^3,7]oct-1-yl)amine hydrochloride], the “activity against cultured bloodstream form T. brucei” value in test [1] is reported as “no significant activity”. Consider `CN(Cc1ccccc1)C12CC3(C)CC1CC3(C)C2` [Compound 23, N-Benzyl-N,3,7-trimethyl(tricyclo[3.3.0.0^3,7]oct-1-yl)amine hydrochloride], for which the “activity against cultured bloodstream form T. brucei” value in test [1] is “no significant activity”. As for `CC(N)C12CC3(C)CC1CC3(C)C2` (stereo not drawn) [Compound 25, 1-(3,7-Dimethyltricyclo[3.3.0.0^3,7]oct-1-yl)ethylamine hydrochloride], the “times more potent than amantadine as NMDA receptor antagonist” value in the test with NMDA receptors (NMDA challenge) was found to be 2.5 times. Regarding `CC12CC3CC1(C)CC3(N(Cc1ccccc1)Cc1ccccc1)C2` [Compound 27, N,N-Dibenzyl-3,7-dimethyl(tricyclo[3.3.0.0^3,7]oct-1-yl)amine hydrochloride], the “activity against cultured bloodstream form T. brucei” value in test [1] was “no significant activity”. For `CNC12CC3(C)CC1CC3(C)C2` [Compound 28, N-3,7-Trimethyl(tricyclo[3.3.0.0^3,7]oct-1-yl)amine hydrochloride], the “activity against cultured bloodstream form T. brucei” value in test [1] is on record as “no significant activity”.

As to `CN(Cc1ccccc1)CC12CC3(C)CC1CC3(C)C2` [Compound 32, N-Benzyl-N-methyl[(3,7-dimethyltricyclo[3.3.0.0^3,7]oct-1-yl)methyl]amine hydrochloride], in test [1], the “activity against cultured bloodstream form T. brucei” value is “no significant activity”. On the same count and under the same terms, the same measure for `CC12CC3CC1(C)CC3(CN1CCCCC1)C2` [Compound 34, N-[(3,7-Dimethyltricyclo[3.3.0.0^3,7]oct-1-yl)methyl]piperidine hydrochloride]: “no significant activity”.

With `CC12CC3CC1(C)CC3(CNC(=N)N)C2` [Compound 35, N-[(3,7-dimethyltricyclo[3.3.0.0^3,7]oct-1-yl)methyl]guanidine hydrochloride], the “activity against cultured bloodstream form T. brucei” value in test [1] was “without antiviral and trypanocidal activities”. In addition, the “times more potent than amantadine as NMDA receptor antagonist” value in the test with NMDA receptors (NMDA challenge) is listed as 10 times. Moreover, the “times more potent than corresponding noradamantyl analog, 18” value in the test with NMDA receptors (vs compound 18) turned out to be 3.5 times. Also, in the test with NMDA receptors (vs memantine, NMDA challenge), the “times less potent than memantine as NMDA receptor antagonist” value came out at 5 times.

Take `CNCC12CC3(C)CC1CC3(C)C2` [Compound 36, N-Methyl[(3,7-dimethyltricyclo[3.3.0.0^3,7]oct-1-yl)methyl]amine hydrochloride]: the “activity against cultured bloodstream form T. brucei” value in test [1] was “no significant activity”.
